{
  "source": "patent US6667025B2",
  "about": "(Mitsubishi Pharma Corporation, priority 1997, dated 2003)",
  "key": {"[1]": {"system": "skin allograft, WKAH donor and F344 recipients", "format": "in vivo", "source_text": "Two MHC-incompatible rat strains were selected, WKAH donor (RT1^k) and F344 recipients (RT1^IV1). Full-thickness skin grafts (2.0×2.0 cm square) were transplanted to the lateral thorax of recipients and wrapped with sterile, bactericidal gauze. The chest was then wrapped with an elastic bandage. Five days after transplantation, the wraps were removed and the grafts inspected daily for rejection. Rejection was defined as more than 90% necrosis of graft epithelium."}, "[2]": {"system": "skin allograft, LEW donor and F344 recipient", "assay": "Rat skin allograft survival, MHC-compatible strains", "format": "in vivo", "conditions": "data not shown"}, "[3]": {"system": "cardiac allograft, WKAH donors and ACI recipients", "assay": "Heterotopic cardiac allograft survival, MHC-incompatible rat strains", "format": "in vivo"}, "[4]": {"system": "renal allograft, mongrel donors and beagle recipients", "assay": "Canine renal allograft survival", "format": "in vivo", "conditions": "5 mg/kg", "description": "Kidneys from mongrel donor dogs were transplanted into beagle dogs in the right iliac fossa, and the recipient dogs were then nephrectomized bilaterally. Levels of serum creatine and blood urea nitrogen were measured to monitor survival. Graft rejection was defined as the day when either serum creatine levels increased to more than 10.0 mg/dL or blood urea nitrogen levels elevated to more than 200 mg/dL. […] The survival curves are illustrated in FIG. 6."}, "[5]": {"system": "popliteal lymph node of (LEW×BN) F1 rats injected with LEW spleen cells", "assay": "Local GvHR, enlargement of popliteal lymph node", "format": "in vivo, rat"}, "[6]": {"system": "CD3-positive T cells and CD45RA or A/B-positive B cells", "assay": "Lymphocyte contents of blood and lymphoid tissues by two color flow cytometry", "format": "in vivo, rat", "description": "The lymphocyte contents of peripheral blood and spleen in FTY720-treated intact or allografted rats were analyzed by two color flow cytometry using anti-rat CD3 and anti-rat CD45RA or A/B monoclonal antibodies (21). Lymphocytes were stained with FITC-conjugated anti-CD3 (clone: 1F4, Caltag Laboratories, South San Fransisco, Calif.) (45) and phycoerythrin-conjugated anti-CD45RA or A/B (clone:OX-33, Pharmingen, La Jolla, Calif.) (46) monoclonal antibodies. The T cell and B cell contents were determined by two-color flow cytometry analysis using a flow cytometer (EPICS-XL; Coulter Co.).\n(§1) In dogs and monkeys, as well as rats, oral administration with FTY720 also decreases the number of circulating lymphocytes in peripheral blood. The reduction of the number of T cells was especially remarkable. Withdrawal of FTY720 treatment recovered the number of lymphocytes in peripheral blood to the normal level within 2 weeks."}, "circulating lymphocytes [7]": {"system": "circulating lymphocytes", "assay": "Circulating lymphocytes in peripheral blood of dogs", "format": "in vivo, dog", "conditions": "oral", "source_text": "as §1"}, "circulating lymphocytes [8]": {"system": "circulating lymphocytes", "assay": "Circulating lymphocytes in peripheral blood of monkeys", "format": "in vivo, monkey", "conditions": "oral", "source_text": "as §1"}, "[9]": {"system": "male F344 rat lymphocytes in lymphoid tissues", "assay": "Homing of transfused male lymphocytes in female rats (SRY PCR)", "format": "in vivo", "conditions": "0.1 or 1 mg/kg oral 2.5 h before transfusion; 30 min after transfusion", "description": "The decrease in circulating lymphocytes by FTY720 is due to the acceleration of lymphocyte homing to mesenteric and peripheral lymph nodes and Peyer's patches (FIGS. 13A-13D). For this experiment, after 2.5 h of administering FTY720 at 0.1 mg/kg or 1 mg/kg orally to female F344 rats, lymphocytes from male F344 rat were transfused intravenously into the rats. Thirty minutes after the transfusion, the peripheral blood, spleen, mesenteric lymph nodes, axillary lymph nodes, Peyer's patches, liver, and lung were removed. PCR amplification of SRY-1 gene, which is Y-chromosome specific, detected male lymphocytes in the tissue samples. The PCR primer sequences for SRY amplification were taken from a previous report (47). […]\nAn aliquot (10 μl) of the PCR products was electrophoresed on 2.5% agarose gel and the amplified DNA-fragments stained with SYBR Green I (Molecular Probes). The fluorescence intensity of the specific bands was visualized and measured by a fluorescence image analyzer (Fluor Imager 575, Molecular Dynamics). The number of male cells in 10^6 female cells, calculated with a standard curve made from a control amplification of SRY from a standard DNA extracted from 10^6 […], is indicated for each tissue noted in FIGS. 13A-13D."}, "rat HEV cell lines": {"system": "rat HEV cell lines", "assay": "Adhesion of rat lymphocytes to HEV cells in vitro", "format": "cell-based", "description": "After the labeling with calcein-AM, the lymphocytes were washed three times with ice-cold RPMI 1640 medium. […] After incubation, the plates were turned upside down and kept for 30 min to remove HEV-nonadherent cells. Calcein pre-labeled lymphocytes adhered to HEV monolayer were lysed by adding distilled water containing 1% nonidet P-40 and the developed fluorescence was measured at 485/530 nm with fluorescence microplate reader (CytoFluor 2350)."}, "T cell region of spleen": {"system": "T cell region of spleen", "assay": "T cell region of spleen in vivo"}, "IL-2 production": {"system": "IL-2 production", "conditions": "same concentration range (up to 1000 nM); cited from earlier work"}},
  "data": [
    {"molecule": "CCCCCCCCc1ccc(CCC(N)(CO)CO)cc1.Cl", "note": "[FTY720, 2-amino-2[2-(4-octylphenyl)ethyl]propane-1,3-diol hydrochloride]", "values": [
      {"measurement": "median survival time (MST) of skin graft", "setting": "[1]; 10 mg/kg for 14 days", "value": 27.0, "unit": "days"},
      {"measurement": "oral dose that significantly prolonged skin graft survival", "setting": "[1]; oral, WKAH to F344 rats", "value": "≥ 0.1", "unit": "mg/kg"},
      {"measurement": "renal toxicity or other toxic signs", "setting": "[1]; rat, in vivo, po, 10 mg/kg", "value": "without renal toxicity or other toxic signs"},
      {"measurement": "dose that significantly prolonged skin allograft survival", "setting": "[2]", "value": "≥ 0.03", "unit": "mg/kg"},
      {"measurement": "MST of cardiac allograft", "setting": "[3]; 0.1 mg/kg for 14 days", "value": 20.0, "unit": "days"},
      {"measurement": "MST of cardiac allograft", "setting": "[3]; 0.3 mg/kg for 14 days", "value": 21.0, "unit": "days"},
      {"measurement": "MST of cardiac allograft", "setting": "[3]; 1 mg/kg for 14 days", "value": 25.5, "unit": "days"},
      {"measurement": "MST of cardiac allograft", "setting": "[3]; 3 mg/kg for 14 days", "value": 29.5, "unit": "days"},
      {"measurement": "MST of cardiac allograft", "setting": "[3]; 10 mg/kg for 14 days", "value": 58.5, "unit": "days"},
      {"measurement": "long-term or indefinite cardiac graft survival", "setting": "[3]; 10 mg/kg, in three out of eight recipient rats", "value": "more than 100 days"},
      {"measurement": "dose that significantly prolonged cardiac allograft survival", "setting": "[3]; vs control", "value": "≥ 0.1", "unit": "mg/kg"},
      {"measurement": "MST of renal allograft", "setting": "[4]", "value": 12.0, "unit": "days"},
      {"measurement": "immunosuppressive potency relative to CsA", "setting": "[5]; local GvHR in rats", "value": 30, "unit": "fold"},
      {"measurement": "oral dose that significantly inhibited enlargement of popliteal lymph node", "setting": "[5]; oral, local GvHR", "value": "≥ 0.1", "unit": "mg/kg"},
      {"measurement": "number of bone marrow cells, thymocytes, polymorphonuclear cells", "setting": "[6]; data not shown", "value": "did not effect"},
      {"measurement": "number of T cells and B cells in spleen, thoracic duct, peripheral blood", "setting": "[6]; oral 1 mg/kg", "value": "decrease"},
      {"measurement": "numbers of T cells and B cells in mesenteric and peripheral lymph nodes", "setting": "[6]; oral 1 mg/kg", "value": "significantly increased"},
      {"measurement": "time to recovery of peripheral blood lymphocytes to normal level after withdrawal", "setting": "[6]; withdrawal of FTY720 treatment", "value": "≤ 2", "unit": "weeks"},
      {"measurement": "numbers of T cells and B cells in peripheral blood", "setting": "[6]; within 6 hours after oral 0.1 to 10 mg/kg", "value": "dramatically decreased"},
      {"measurement": "number of circulating lymphocytes in peripheral blood", "setting": "circulating lymphocytes [7]", "value": "decreases"},
      {"measurement": "number of circulating lymphocytes in peripheral blood", "setting": "circulating lymphocytes [8]", "value": "decreases"},
      {"measurement": "pre-labeled lymphocytes in peripheral lymph nodes, Peyer's patch, mesenteric lymph nodes", "setting": "[9]", "value": "accelerated lymphocyte homing"},
      {"measurement": "pre-labeled lymphocytes in spleen", "setting": "[9]", "value": "reduction"},
      {"measurement": "Fluorescence intensity at 485/530, mean ± SE (n = 6)", "setting": "rat HEV cell lines; Experiment 1, HEV cells pretreated 3 hours with 1 nmol/L", "value": "1215.7 ± 191.2"},
      {"measurement": "Fluorescence intensity at 485/530, mean ± SE (n = 6)", "setting": "rat HEV cell lines; Experiment 1, HEV cells pretreated 3 hours with 10 nmol/L", "value": "2926.0 ± 196.4"},
      {"measurement": "Fluorescence intensity at 485/530, mean ± SE (n = 6)", "setting": "rat HEV cell lines; Experiment 1, HEV cells pretreated 3 hours with 100 nmol/L", "value": "2510.2 ± 118.8"},
      {"measurement": "Fluorescence intensity at 485/530, mean ± SE (n = 6)", "setting": "rat HEV cell lines; Experiment 2, lymphocytes pretreated 3 hours with 100 nmol/L", "value": "1945.7 ± 5.2"},
      {"measurement": "Fluorescence intensity at 485/530, mean ± SE (n = 6)", "setting": "rat HEV cell lines; FTY720 1 nmol/L present", "value": "2059.2 ± 112.6"},
      {"measurement": "Fluorescence intensity at 485/530, mean ± SE (n = 6)", "setting": "rat HEV cell lines; FTY720 10 nmol/L present", "value": "2107.2 ± 106.5"},
      {"measurement": "Fluorescence intensity at 485/530, mean ± SE (n = 6)", "setting": "rat HEV cell lines; FTY720 100 nmol/L present", "value": "2252.0 ± 70.8"},
      {"measurement": "Fluorescence intensity at 485/530, mean ± SE (n = 6)", "setting": "rat HEV cell lines; FTY720 1000 nmol/L present", "value": "2383.2 ± 115.2"},
      {"measurement": "concentration that enhanced adhesion of calcein-prelabeled lymphocytes to HEV", "setting": "rat HEV cell lines; in vitro, 120 min", "value": "≥ 1", "unit": "nmol/L"},
      {"measurement": "effect on T cell region of spleen", "setting": "T cell region of spleen", "value": "atrophy"},
      {"measurement": "production of IL-2", "setting": "IL-2 production", "value": "did not inhibit"}
    ]}
  ]
}
